# Bridge positions count the residues as written; N and C are the ends. Square brackets hold non-standard residues; d marks the D form. Ends that are not written are not given here. cellulose = not defined here; βAla = NCCC(=O)O
# Legend:
# Assay type in all cases: binding
# Set-up in all cases: key: No binding of immunoglobulin for the defined peptide variant, detection negative: 0; Binding of immunoglobulin for the defined peptide variant, detection positive: +
# human IgG-Fc = assay: Cellulose-immobilized 13-mer peptide variants incubated with human IgG-Fc, anti-human IgG-AP detection; details: IgG-Fc 1 μg/ml in blocking buffer, 3 h room temperature
# Summary of the method: (§1)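 Read-out was colorimetric NBT/BCIP staining (developing buffer pH 9.5) after alkaline phosphatase-conjugated anti-human IgG at 1.2 μg/ml. Before this, the immobilized peptides had been incubated 3 h at room temperature with 1 μg/ml IgG-Fc, 1:10,000 diluted serum, or albumin-containing blocking buffer without addition.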
# [1] = system: immunoglobulins in human plasma; assay: Cellulose-immobilized 13-mer peptide variants incubated with human plasma, anti-human IgG-AP detection; details: human plasma as sample, diluted 1:10,000 in blocking buffer, 3 h room temperature
# Summary of the method: as §1
# serum albumin = assay: Cellulose-immobilized 13-mer peptide variants incubated with serum albumin (negative control), anti-human IgG-AP detection; details: blocking buffer without addition, 3 h room temperature
# Summary of the method: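 SPOT-type 13-mer peptides on cellulose with a (βA)(βA) spacer, blocked in 5% saccharose/4% BSA in T-TBS pH 8.0. Incubated 3 h at RT with human IgG-Fc (1 μg/ml) or human serum/plasma (1:10,000), or with blocking buffer alone as the albumin specificity control. Bound IgG detected with AP-anti-human IgG (1.2 μg/ml) and NBT/BCIP colorimetric development at pH 9.5.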
Substance,Result for incubation with human IgG-Fc (immunoglobulin binding detection) (human IgG-Fc),Result for incubation with human plasma (immunoglobulin binding detection) [1],Result for incubation with serum albumin (immunoglobulin binding detection) (serum albumin)
01Y: cellulose-bound 13-mer variant YCAWHLGELVWCT-(βA)(βA) (YCAWHLGELVWCT-{βAla-βAla-cellulose}; disulfide 2-12 (inferred); reading uncertain; also: printed as YCAWHLGELVWCT-(βA)(βA)),0,0,0
09C: cellulose-bound 13-mer variant DCAWHLGECVWCT-(βA)(βA) (DCAWHLGECVWCT-{βAla-βAla-cellulose}; not fully specified; printed as DCAWHLGECVWCT-(βA)(βA); cysteine pairing not given here; reading uncertain),0,0,0
10M: cellulose-bound 13-mer variant DCAWHLGELMWCT-(βA)(βA) (DCAWHLGELMWCT-{βAla-βAla-cellulose}; disulfide 2-12 (inferred); reading uncertain; also: printed as DCAWHLGELMWCT-(βA)(βA)),0,0,0
03D: cellulose-bound 13-mer variant DCDWHLGELVWCT-(βA)(βA) (DCDWHLGELVWCT-{βAla-βAla-cellulose}; disulfide 2-12 (inferred); reading uncertain; also: printed as DCDWHLGELVWCT-(βA)(βA)),0,0,0

# The next lines start with the values.
Result for incubation with human IgG-Fc (immunoglobulin binding detection) (human IgG-Fc),Result for incubation with human plasma (immunoglobulin binding detection) [1],Result for incubation with serum albumin (immunoglobulin binding detection) (serum albumin),Substance
+,0,0,01R: cellulose-bound 13-mer variant RCAWHLGELVWCT-(βA)(βA) (RCAWHLGELVWCT-{βAla-βAla-cellulose}; disulfide 2-12 (inferred); reading uncertain; also: printed as RCAWHLGELVWCT-(βA)(βA))
0,0,0,06F: cellulose-bound 13-mer variant DCAWHFGELVWCT-(βA)(βA) (DCAWHFGELVWCT[βAla][βAla]; disulfide 2-12 (inferred); not fully specified (N-terminus); printed as DCAWHFGELVWCT-(βA)(βA); also: cellulose-bound)
0,0,0,10R: cellulose-bound 13-mer variant DCAWHLGELRWCT-(βA)(βA) (DCAWHLGELRWCT-{βAla-βAla-cellulose}; disulfide 2-12 (inferred); reading uncertain; also: printed as DCAWHLGELRWCT-(βA)(βA))
0,0,0,03L: cellulose-bound 13-mer variant DCLWHLGELVWCT-(βA)(βA) (DCLWHLGELVWCT-{βAla-βAla-cellulose}; disulfide 2-12 (inferred); reading uncertain; also: printed as DCLWHLGELVWCT-(βA)(βA))
0,0,0,06V: cellulose-bound 13-mer variant DCAWHVGELVWCT-(βA)(βA) (DCAWHVGELVWCT-{βAla-βAla-cellulose}; disulfide 2-12 (inferred); not fully specified (N-terminus); printed as DCAWHVGELVWCT-(βA)(βA); reading uncertain)

# From patent publication US7205382B2, “Peptides, the production and use thereof for binding immunoglobulins” (Fresenius Medical Care Affina GmbH, priority 2000, dated 2007)
